Assay results published in paper PMC9645260, “Small-molecule inhibitors of P-Rex guanine-nucleotide exchange factors” (Small GTPases, 2022).

Key:
P-Rex2 DH domain = molecular target: T1, P-Rex2 DH domain (Homo sapiens, UniProt Q70Z35); assay: Liposome-based GEF activity assay, isolated P-Rex2 DH domain; assay type: biochemical; settings: 200 nM DH domain, read-out: inhibition of constitutive Rac-GEF activity of isolated P-Rex2 DH domain
T1 construct: constitutive Rac-GEF activity of the isolated P-Rex2 DH domain (by 92%); made in house; host or cells: Sf9 cells (baculovirus)
T1 sequence (Q70Z35 23-214 limits assumed): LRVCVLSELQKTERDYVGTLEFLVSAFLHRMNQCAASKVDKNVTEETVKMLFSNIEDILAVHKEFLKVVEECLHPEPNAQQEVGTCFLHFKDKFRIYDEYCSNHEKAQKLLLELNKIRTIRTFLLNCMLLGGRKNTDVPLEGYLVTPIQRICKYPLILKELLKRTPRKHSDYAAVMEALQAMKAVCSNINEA
Method: Full-length N-terminally EE-tagged P-Rex1, P-Rex2, the P-Rex1 DH and DHPH domains and the P-Rex2 DH domain were produced in Sf9 cells using baculoviral transduction and were purified using anti-EE beads, as previously described. Briefly, frozen pellets from 500 ml of Sf9 culture infected with P-Rex expressing high-titre baculovirus were resuspended in ice-cold lysis Sf9-cell lysis buffer 2 (1x PBS, 1% Triton X-100, 5 mM EGTA, 1 mM EDTA, 25 mM NaF, 20 mM β-glycerophosphate, 1 mM DTT, 100 µM PMSF, 10 μg/ml each of leupeptin, pepstatin A, aprotinin and antipain) for 5 min and then ultracentrifuged at 118,000 × g for 1 h at 4°C. Supernatants were incubated with pre-washed anti-EE beads for 90 min on ice with end-over-end rotation. […] Protein concentration and purity were determined by coomassie staining of SDS-PAGE gels. […]
Liposome-based GEF activity assays were carried out essentially as described, except that GEFs were incubated with inhibitor compounds prior to the assay. […] Small GTPases were isolated using anti-EE antibody-coupled Sepharose beads or glutathione Sepharose beads, as appropriate, by incubation on ice for 90 min with end-over-end rotation, four washes in ice-cold wash buffer and resuspension of beads in Ultima Gold scintillation fluid (Perkin Elmer). ^35S-GTPγS incorporation was assessed by scintillation counting (Packard 1600TR, Liquid Scintillation Analyser).

[1] = system: PAE cells expressing eGFP-P-Rex1; assay: PAE cell morphology after PDGF stimulation; assay type: cell-based, pig; settings: 1 µM for 15 min
Method: Pig aortic endothelial (PAE) cells, which stably overexpress PDGF receptor beta, were grown at 37°C in a humidified 5% CO2 atmosphere in Ham’s F-12 medium with L-glutamine (PAA) supplemented with 10% FBS, 100 units/ml penicillin and 100 µg/ml streptomycin (complete medium). Cells were passaged by tryptic digest 1:4 approximately every 2 days. PAE cells were transfected with eGFP-P-Rex1 by electroporation as described, resuspended in complete medium without antibiotics and plated onto sterile 22 mm glass coverslips in 6-well plates. After 12 h, cells were washed twice in Ham’s F-12 and serum starved in Ham’s F-12 containing 1% fatty acid-free BSA) for 8 h. PREX-in1 was added to the medium to a concentration of 1 µM, or cells were mock-treated with vehicle control (0.05% DMSO), for 15 min at 37°C. Cells were stimulated with 10 ng/ml PDGF for 10 min, or were mock-stimulated, and then fixed in 4% paraformaldehyde, 50 mM Pipes pH 6.8, 1 mM EGTA, 1 mM MgCl2 for 15 min at RT. Cells were washed in PBS, permeabilized for 10 min in PBS containing 0.2% Triton X-100, washed twice in PBS and once in PBS, 0.1% BSA. The F-actin cytoskeleton was stained by incubating samples with TRITC-Phalloidin (Sigma P1951) in PBS, 0.1% BSA for 45 min at RT in the dark. Coverslips were washed twice in PBS, rinsed once in water, and mounted onto slides using Aqua Polymount (Polysciences, Inc.). Samples were imaged using an AxioImager D2 fluorescence microscope (Zeiss, ×200 magnification), taking 15–20 representative images for each duplicate coverslip. Images were analysed blinded to experimental design using ImageJ, for both manual and automated analysis. Using manual analysis, each cell was assigned to a morphology category (basal, with lamellipodia and membrane ruffles, spread with ruffles). With automated analysis, the surface area and circularity of all cells were quantified using the ‘Set Measurements’ analysis tools of ImageJ after assigning a mask to each cell. To determine the proportion of spread cells, cells with a surface area more than 50% larger than the mean under basal conditions (1246 μm^2) were considered spread. eGFP-P-Rex1 expressing cells were compared to non-green fluorescent cells on the same coverslip.

`COc1ccc(-c2[nH]nc3c2C(c2ccc(-c4ccc(Cl)cc4)o2)C(C#N)=C(N)O3)cc1` (centres unmarked) [PREX-in1, 6-amino-4-[5-(4-chlorophenyl)-2-furyl]-3-(4-methoxyphenyl)-2,4-dihydropyrano[2,3-c]pyrazole-5-carbonitrile] was tested, and the inhibition at 10 µM (P-Rex2 DH domain) was 92%, the “morphology of mock-transfected cells” value [1] was “did not affect the morphology” and the “P-Rex1 dependent spreading of PDGF-stimulated cells” value ([1]; 10 ng/ml PDGF) was “did inhibit”. For the same molecule, the cell circularity ([1]; automated analysis) was “lack of effect” and the “proportion of cells with lamellipodia or membrane ruffles” value ([1]; manual analysis) was “did not affect the proportion of cells with lamellipodia or membrane ruffles”.
